In patent US11963972B2, “Antiviral agents and nucleoside analogs for treatment of Zika virus” (priority 2016, dated 2024):
pEC50: −log10 of the molar value.

Assays:
[1] = Cytotoxicity MTT assay in Huh7 cells; type: cell-based; settings: human
[2] = tested on: ZIKV Puerto Rico strain (PRVABC59); test: ZIKV CPE MTS assay in Huh7 cells; type: cell-based, Zika virus; settings: Zika virus; for IC50: Huh-7, 120 h, read-out: ZIKV CPE MTS Assay IC50 (μM) Huh7
Description: (§1) […] Cell cytopathic effect (CPE) MTS assay (CellTiter 96@k) AQueous One Solution Cell Proliferation Promega kit, Promega) was measured four (Vero) or five (U251 or Huh7) days after compound addition to determine the levels of replication inhibition.

[3] = Cytotoxicity MTT assay in CEM cells; type: cell-based; settings: human
Text: (§2) The toxicity of the compounds can be assessed in Vero, human PBM, CEM (human lymphoblastoid), and can be assessed in MT-2, and HepG2 cells, as described previously (see Schinazi R. F., Sommadossi J.-P., Saalmann V., Cannon D. L., Xie M.-Y., Hart G. C., Smith G. A. & Hahn E. F. Antimicrob. Agents Chemother. 1990, 34, 1061-67). Cycloheximide can be included as positive cytotoxic control, and untreated cells exposed to solvent can be included as negative controls. The cytotoxicity (IC50) can be obtained from the concentration-response curve using the median effective method described previously (see Chou T.-C. & Talalay P. Adv. Enzyme Regul. 1984, 22, 27-55; Belen'kii M. S. & Schinazi R. F. Antiviral Res. 1994, 25, 1-11).

[4] = tested on: ZIKV Puerto Rico strain (PRVABC59); test: ZIKV CPE MTS assay in human neuroblastoma (U251) cells; type: cell-based, Zika virus; settings: Zika virus; for IC50: U-251, 120 h, read-out: ZIKV CPE MTS Assay IC50 (μM) H251
Description: as §1

[5] = Cytotoxicity MTT assay in PBM cells; type: cell-based; settings: human
Description: v) Cellular Toxicity Assays: Nucleoside and nucleoside monophosphate prodrugs can be evaluated for their potential toxic effects on P4/R5 cells, MT-2 cells and uninfected PHA-stimulated human PBM cell. Log-phase P4/R5, MT-2, and PHA-stimulated human PBM cells can be seeded at 5×10^3 to 5×10^4 cells/well in 96-well cell culture plates containing 10-fold serial dilutions of the test drug. The cultures can be incubated for 2-4 days, after which 3-(4,5-dimethylthiazol-2-yl)-2,5-diphenyltetrazolium bromide (MTT) dye solution (Promega, Madison, WI) can be added to each well and incubated overnight. The reaction can be stopped with stop solubilization solution (Promega, Madison, WI) and plates can be read at a wavelength of 570 nm. The median 50% cytotoxic concentration (CC50) can be determined from the concentration-response curve using the median effect method.
as §2

[6] = Cytotoxicity MTT assay in HepG2 cells; type: cell-based; settings: human
Text: as §2

[7] = tested on: ZIKV Puerto Rico strain (PRVABC59); test: ZIKV CPE MTS assay in Vero cells; type: cell-based, Zika virus; settings: Zika virus; for IC50: 96 h, read-out: ZIKV CPE MTS Assay IC50 (μM) Vero; for inhibition at 20 µM / inhibition at 10 µM: read-out: ZIKV CPE MTS Assay percentage of inhibition at the concentration, Vero
Description: as §1

[8] = Cytotoxicity MTT assay in Vero cells; type: cell-based; settings: African green monkey
Text: as §2

[9] = tested on: Zika virus; test: Zika-infected Vero cell model, 4G2 antibody staining, FACS; type: cell-based; settings: 72 h, MOI 0.1, Day 3, FACS, read-out: percent inhibition of Zika-infected Vero cells
Description: At 8 AM on Day 1, 10,000 cells/well were plated in a 96 well plate. At 2 PM, MOI 0.1 Zika virus was added. At 3 PM, virus inoculum was removed, and various concentrations of drug-containing medium was added, at multiple concentrations (duplicates of […]).
On Day 3, supernatants were harvested, and frozen for later RT-PCR confirmation. Cells were harvested, stained with 4G2 antibody, and intracellular virus was quantified with FACS. The EC50/EC90 were then calculated.
Concentrations of 10, 1, 0.1, 0.01 μM were assayed in duplicate for 10 total drugs. All cells were harvested, but the only cells stained with antibody were those contacted with the following compounds, in the listed concentrations:
All gates were established using uninfected cells as a control, and were maintained for all test conditions.

[10] = tested on: DENV-2; test: DENV-2 VERO infectious assay; type: cell-based, Dengue virus; settings: Dengue virus, DENV2, Vero
[11] = tested on: DENV-2; test: DENV-2 Huh-7 infectious assay; type: cell-based; settings: Dengue virus, DENV2, Huh-7
[12] = Vero cells, MOI=0.01, four days
[13] = U-251, read-out: ZIKV CPE MTS Assay percentage of inhibition at the concentration, H251

SMILES | IC50 [1] [µM] | IC50 [8] [µM] | IC50 [2] [µM] | IC50 [3] [µM] | IC50 [4] [µM] | inhibition at 20 µM [4, 13] [%] | IC50 ([5]; PBM cells) [µM] | IC50 ([7]; Vero) [µM] | inhibition at 20 µM ([7]; Vero) [%] | other results
CC1(O)C(O)[C@@H](CO)O[C@H]1n1ccc(N)nc1=O (stereo partly drawn) | > 100 | > 100 | – | – | – | – | – | – | – | IC50 ([2]; Huh7 cells, MOI=0.5, five days): 9.3 µM; IC50 ([3]; CEM lymphoblastoid cells): 84.3 µM; IC50 ([4]; H251 cells, MOI=0.5, five days): 16.3 µM; IC50 ([5]; PHA-stimulated human PBM cells): 65.4 µM; IC50 [6]: 59.1 µM; IC50 [7, 12]: 9.2 µM
C[C@@]1(O)C(O)[C@@H](CO)O[C@H]1n1cnc2c(N)ncnc21 (stereo partly drawn) | – | – | – | – | – | – | – | – | – | IC50 ([2]; Huh7 cells, MOI=0.5, five days): 3.4 µM; IC50 ([4]; H251 cells, MOI=0.5, five days): > 20 µM; inhibition at 20 µM ([4]; U-251, H251 cells, at 20 μM, read-out: ZIKV CPE MTS Assay percentage of inhibition at the concentration, H251): 24%; IC50 [7, 12]: 20 µM
C[C@@]1(O)C(n2cnc3c(N)ncnc32)O[C@H](CO)[C@@H]1O (stereo partly drawn) | – | > 100 | – | – | – | – | – | – | – | IC50 ([2]; Huh7 cells, MOI=0.5, five days): 1.7 µM; IC50 ([3]; CEM lymphoblastoid cells): > 100 µM; IC50 ([4]; H251 cells, MOI=0.5, five days): > 10 µM; inhibition at 10 µM ([4]; U-251, H251 cells, at 10 μM, read-out: ZIKV CPE MTS Assay percentage of inhibition at the concentration, H251): 37%; IC50 ([5]; PHA-stimulated human PBM cells): > 100 µM; IC50 [7, 12]: 13.1 µM
CCOC(=O)[C@H](C)NP(=O)(OCC1C(n2cnc3c(N)cc(N)nc32)C[C@](C)(O)[C@@H]1O)Oc1ccccc1 (stereo partly drawn) | > 100 | > 100 | 2.9 | > 100 | > 20 | 42 | > 100 | > 20 | 1 | –
CCOC(=O)[C@@H](C)NP(=O)(OC[C@H]1O[C@@H](n2ccc(NO)nc2=O)C(C)(O)C1O)Oc1ccccc1 (stereo partly drawn) | > 100 | > 100 | 5 | > 100 | > 20 | 27 | > 100 | > 20 | 1 | –
CCOC(=O)[C@H](C)NP(=O)(OC[C@H]1O[C@@H](n2cnc3c(N)nc(N=[N+]=[N-])nc32)C(C)(O)C1O)Oc1ccccc1 (stereo partly drawn) | > 100 | > 100 | < 20 | > 100 | > 20 | 34 | > 100 | > 20 | 3 | inhibition at 20 µM ([2]; Huh-7, read-out: ZIKV CPE MTS Assay percentage of inhibition at the concentration, Huh7): 88%; IC50 [6]: > 100 µM
CCOC(=O)[C@H](C)NP(=O)(OCC1O[C@@H](n2cnc3c(NOC)nc(N)nc32)[C@](C)(O)[C@@H]1O)Oc1ccccc1 (stereo partly drawn) | 94 | > 100 | 4.7 | 28 | > 20 | 43 | > 100 | > 20 | 19 | –
CC(C)OC(=O)[C@H](C)NP(=O)(OC[C@H]1O[C@@H](n2ccc(NO)nc2=O)C(C)(O)C1O)Oc1ccccc1 (stereo partly drawn) | > 100 | > 100 | 0.8 | > 100 | > 20 | 3 | > 100 | > 20 | 1 | –
CC(C)OC(=O)[C@H](C)NP(=O)(OCC1O[C@@H](n2cnc3c(N=[N+]=[N-])nc(N)nc32)[C@](C)(O)[C@@H]1O)Oc1ccccc1 (stereo partly drawn) | > 100 | > 100 | 11.5 | > 100 | > 20 | 20 | > 100 | > 20 | 1 | –
CC(C)OC(=O)[C@H](C)NP(=O)(OCC1O[C@@H](n2cnc3c(N)nc(N)nc32)[C@](C)(O)[C@@H]1O)Oc1ccccc1 (stereo partly drawn) | > 100 | > 100 | 3.7 | > 100 | > 20 | 25 | > 100 | > 20 | 1 | –
CC(C)OC(=O)[C@H](C)NP(=O)(OC[C@H]1O[C@@H](n2cc(F)c3c(N)ncnc32)[C@](C)(O)C1O)Oc1ccccc1 (stereo partly drawn) | – | > 100 | 7.6 | 92.1 | > 10 | – | 34.7 | > 20 | – | inhibition at 10 µM [4, 13]: 1%
CC(C)OC(=O)[C@H](C)N[P@](=O)(OC[C@H]1O[C@@H](n2ccc(=O)[nH]c2=O)[C@](C)(F)[C@@H]1O)Oc1ccccc1 | 49.3 | > 100 | 5.7 | > 100 | > 20 | 17 | > 100 | > 20 | 1 | –
CC(C)OC(=O)[C@H](C)NP(=O)(OC[C@H]1O[C@@H](n2ccc(=O)[nH]c2=O)[C@@](F)(Cl)C1O)Oc1ccccc1 (stereo partly drawn) | – | > 100 | – | > 100 | – | – | > 100 | < 10 | – | inhibition at 10 µM ([7]; Vero): 76%
CC(C)OC(=O)[C@H](C)NP(=O)(OC[C@H]1O[C@@H](n2ccc(N)nc2=O)C(F)(Cl)C1O)Oc1ccccc1 (stereo partly drawn) | – | > 100 | – | > 100 | – | – | > 100 | < 10 | – | inhibition at 10 µM ([7]; Vero): 80%
CC1(F)C(O)[C@@H](CO)O[C@H]1n1ccc(N)nc1=O (stereo partly drawn) | – | > 100 | – | – | – | – | – | – | – | IC50 ([3]; CEM lymphoblastoid cells): > 100 µM; IC50 ([5]; PHA-stimulated human PBM cells): > 100 µM; IC50 [6]: > 100 µM; IC50 [7, 12]: ≤ 10 µM; inhibition at 10 µM ([7]; Vero cells, at 10 μM): 65%
C[C@@H]1C[C@@H]([C@H](O)CC2CC(=O)NC(=O)C2)C(=O)[C@@H](C)C1 | – | 0.2 | – | 0.2 | – | – | 0.9 | – | – | IC50 [6]: 0.3 µM
CC1(O)C(O)[C@@H](CO)O[C@H]1n1cc(F)c2c(N)ncnc21 (stereo in doubt) | – | – | – | – | – | – | – | – | – | inhibition at 0.01 µM [9]: 21%; inhibition at 0.1 µM [9]: 59%; inhibition at 1 µM [9]: 73%; inhibition at 10 µM [9]: 83%
CC1(O)C(O)[C@@H](CO)O[C@H]1n1cc(F)c2c(N)ncnc21 (stereo partly drawn) [drawing 83] | – | – | – | – | – | – | – | – | – | pEC50 [10]: 5.07; pEC50 [11]: 5.59
O=c1nc(NO)ccn1[C@@H]1O[C@H](CO)C(O)C1O (stereo partly drawn) [drawing 85] | – | – | – | – | – | – | – | – | – | inhibition at 0.01 µM [9]: 0%; inhibition at 0.1 µM [9]: 5%; inhibition at 1 µM [9]: 35%; inhibition at 10 µM [9]: 57%
CC1(O)C(O)[C@@H](CO)O[C@H]1n1cc(F)c2c(N)ncnc21 (stereo partly drawn) [drawing 91] | 17.5 | > 100 | – | – | – | – | – | – | – | IC50 ([2]; Huh7 cells, MOI=0.5, five days): 1.7 µM; IC50 ([3]; CEM lymphoblastoid cells): 33.6 µM; IC50 ([4]; H251 cells, MOI=0.5, five days): 6.1 µM; IC50 ([5]; PHA-stimulated human PBM cells): 83.7 µM; IC50 [7, 12]: 5.1 µM
O=C(O)c1cc(/N=N/c2ccc(S(=O)(=O)Nc3ccccn3)cc2)ccc1O [drawing 106] | – | > 100 | – | – | – | – | – | – | – | IC50 ([3]; CEM lymphoblastoid cells): > 100 µM; IC50 ([5]; PHA-stimulated human PBM cells): > 100 µM; IC50 [6]: > 100 µM
O=c1nc(NO)ccn1[C@@H]1O[C@H](CO)C(O)C1O (stereo partly drawn) [drawing 107] | – | 7.7 | – | – | – | – | – | – | – | IC50 ([2]; Huh7 cells, MOI=0.5, five days): 5.1 µM; IC50 ([3]; CEM lymphoblastoid cells): 2.5 µM; IC50 ([4]; H251 cells, MOI=0.5, five days): 4.3 µM; IC50 ([5]; PHA-stimulated human PBM cells): 30.6 µM; IC50 [7, 12]: 3.2 µM
